From the supplement of paper PMC11061612

Legend:
Test in all cases: combination Emax (second highest fraction inhibited in the dose matrix, 72 h); higher = more inhibition; extreme values may be limits of the assay
[1] = system: A375 (Melanoma)
Procedure, shortened: (§1)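 Bliss excess equals the observed combination effect minus the expected value EA + EB − EA·EB, where EA and EB are the effects of each agent alone. Combination Emax is the second-highest inhibition within the matrix. Inhibition was scaled from CellTiter-Glo 2.0 luminescence, with 0 set by vehicle wells and 1 by blank wells, after 72 hours of two-drug dosing of cells plated in 1536-well plates.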

[2] = system: C2BBe1 (Colorectal Carcinoma)
Procedure, shortened: as §1

[3] = system: C32 (Melanoma)
Procedure, shortened: as §1

[4] = system: Daudi (Burkitt's Lymphoma)
Procedure, shortened: as §1

[5] = system: HT-1197 (Bladder Carcinoma)
Procedure, shortened: as §1

[6] = system: HT-144 (Melanoma)
Procedure, shortened: as §1

[7] = system: JJN-3 (Plasma Cell Myeloma)
Procedure, shortened: as §1

[8] = system: SK-N-DZ (Neuroblastoma)
Procedure, shortened: as §1

[9] = system: SNU-1 (Gastric Carcinoma)
Procedure, shortened: as §1

[10] = system: TOV-21G (Ovarian Carcinoma)
Procedure, shortened: as §1

[11] = system: COR-L105 (Lung Adenocarcinoma)
Procedure, shortened: as §1

[12] = system: L-363 (Plasma Cell Myeloma)
Procedure, shortened: as §1

[13] = system: MDA-MB-175-VII (Breast Carcinoma)
Procedure, shortened: as §1

[14] = system: NCI-H1435 (Non-Small Cell Lung Carcinoma)
Procedure, shortened: as §1

[15] = system: NCI-H2009 (Lung Adenocarcinoma)
Procedure, shortened: as §1

[16] = system: SK-MEL-24 (Melanoma)
Procedure, shortened: as §1

| Compound | combination Emax [1] | combination Emax [2] | combination Emax [3] | combination Emax [4] | combination Emax [5] | combination Emax [6] | combination Emax [7] | combination Emax [8] | combination Emax [9] | combination Emax [10] | combination Emax [11] | combination Emax [12] | combination Emax [13] | combination Emax [14] | combination Emax [15] | combination Emax [16] |
| --- | --- | --- | --- | --- | --- | --- | --- | --- | --- | --- | --- | --- | --- | --- | --- | --- |
| CC(=O)c1c(C)c2cnc(Nc3ccc(N4CCNCC4)cn3)nc2n(C2CCCC2)c1=O [Palbociclib] + CN(CC[C@H](CSC1=CC=CC=C1)NC2=C(C=C(C=C2)S(=O)(=O)NC(=O)C3=CC=C(C=C3)N4CCC(CC4)[C@H](C5=CC=CC=C5C6=CC=C(C=C6)Cl)O)S(=O)(=O)C(F)(F)F)CCO [AZD4320] (first compound max 10 µM, 7x7, partner max 1 µM) | 0.373 | 0.318 | 0.209 | 0.561 | 0.338 | 0.753 | 0.388 | 0.992 | 0.831 | 0.626 | – | – | – | – | – | – |
| CN(CCO)CC[C@H](CSc1ccccc1)Nc1ccc(S(=O)(=O)NC(=O)c2ccc(N3CCC([C@@H](O)c4ccccc4-c4ccc(Cl)cc4)CC3)cc2)cc1S(=O)(=O)C(F)(F)F [AZD4320] + CS(=O)(=O)CCNCc1ccc(-c2ccc3ncnc(Nc4ccc(OCc5cccc(F)c5)c(Cl)c4)c3c2)o1 [Lapatinib] (first compound max 1 µM, 7x7, partner max 10 µM) | 0.413 | – | 0.344 | – | – | – | – | – | – | – | 0.917 | 0.154 | 1 | 0.953 | 0.349 | 0.942 |
| CS(=O)(=O)CCNCc1ccc(-c2ccc3ncnc(Nc4ccc(OCc5cccc(F)c5)c(Cl)c4)c3c2)o1 [Lapatinib] + NC1(c2ccc(-c3nc4ccn5c(=O)[nH]nc5c4cc3-c3ccccc3)cc2)CCC1 [MK-2206] (first compound max 10 µM, 7x7, partner max 10 µM) | 0.89 | – | 0.635 | – | – | – | 0.899 | – | – | – | 0.825 | 0.912 | 1 | 0.665 | 0.431 | 0.949 |
| C[C@@H](Oc1cc(-c2cnn(C3CCNCC3)c2)cnc1N)c1c(Cl)ccc(F)c1Cl [Crizotinib] + Cn1cnc2c(F)c(Nc3ccc(Br)cc3Cl)c(C(=O)NOCCO)cc21 [Selumetinib] (first compound max 10 µM, 7x7, partner max 10 µM) | 0.938 | – | 0.995 | – | – | – | – | – | – | – | 0.472 | 0.871 | 0.267 | 0.136 | 0.664 | 0.93 |
| C[C@@H](Nc1cc(F)cc(F)c1)c1cc(C(=O)N(C)C)cc2c(=O)cc(N3CCOCC3)oc12 [AZD8186] + CC(=O)c1c(C)c2cnc(Nc3ccc(N4CCNCC4)cn3)nc2n(C2CCCC2)c1=O [Palbociclib] (first compound max 10 µM, 7x7, partner max 10 µM) | 0.42 | – | 0.342 | – | – | – | – | – | – | – | 0.392 | 0.737 | 0.456 | 0.361 | 0.256 | 0.449 |
| C=CCn1c(=O)c2cnc(Nc3ccc(N4CCN(C)CC4)cc3)nc2n1-c1cccc(C(C)(C)O)n1 [AZD1775] + Nc1ccn([C@@H]2O[C@H](CO)[C@@H](O)C2(F)F)c(=O)n1 [Gemcitabine] (first compound max 1 µM, partner max 0.3 µM) | 0.966 | – | 0.701 | – | – | – | – | – | – | – | 0.428 | 0.983 | 0.456 | 0.345 | 0.907 | 0.793 |
| CC1(C)CCC(CN2CCN(c3ccc(C(=O)NS(=O)(=O)c4ccc(NCC5CCOCC5)c([N+](=O)[O-])c4)c(Oc4cnc5[nH]ccc5c4)c3)CC2)=C(c2ccc(Cl)cc2)C1 [Venetoclax] + CS(=O)(=O)CCNCc1ccc(-c2ccc3ncnc(Nc4ccc(OCc5cccc(F)c5)c(Cl)c4)c3c2)o1 [Lapatinib] (first compound max 1 µM, 7x7, partner max 10 µM) | 0.169 | – | 0.209 | – | – | – | – | – | – | – | 0.587 | 0.133 | 0.937 | 0.195 | 0.151 | 0.683 |
| CS(=O)(=O)CCNCc1ccc(-c2ccc3ncnc(Nc4ccc(OCc5cccc(F)c5)c(Cl)c4)c3c2)o1 [Lapatinib] + Cn1cnc2c(F)c(Nc3ccc(Br)cc3Cl)c(C(=O)NOCCO)cc21 [Selumetinib] (first compound max 10 µM, 7x7, partner max 10 µM) | 0.736 | – | 0.935 | – | – | – | – | – | – | – | 0.682 | 0.104 | 0.993 | 0.559 | 0.53 | 0.853 |
| Cc1nc(-c2cn3c(n2)-c2ccc(-c4cnn(C(C)(C)C(N)=O)c4)cc2OCC3)n(C(C)C)n1 [Taselisib] + O=C(Nc1ccc2[nH]nc(-c3ccncc3)c2c1)[C@@H]1CCN(CC(=O)N2CCN(c3ccc(-c4ncccn4)cc3)CC2)C1 [SCH772984] (first compound max 10 µM, 7x7, partner max 5 µM) | 0.918 | – | 1 | – | – | – | – | – | – | – | 0.788 | 0.63 | 1 | 0.791 | 0.919 | 0.93 |
| O=C(c1cc(Cc2n[nH]c(=O)c3ccccc23)ccc1F)N1CCN(C(=O)C2CC2)CC1 [Olaparib] + COc1nnc2ccc(N3CCC(c4ccc(OCCN5CCN(C)C(=O)[C@H]5C)cc4)CC3)nn12 [AZD5153] (first compound max 10 µM, 7x7, partner max 1 µM) | 0.425 | – | 0.22 | – | – | – | – | – | – | – | 0.404 | 0.468 | 0.316 | 0.223 | 0.374 | 0.419 |
| O=C(c1cc(Cc2n[nH]c(=O)c3ccccc23)ccc1F)N1CCN(C(=O)C2CC2)CC1 [Olaparib] + Cc1c2c(nn1C)CSCc1cc(n(C)n1)CSc1cc(c3ccccc3c1)OCCCc1c(C(=O)O)n(C)c3c-2c(Cl)ccc13 [AZD5991] (first compound max 10 µM, 7x7, partner max 1 µM) | 0.163 | – | 0.0885 | – | – | – | – | – | – | – | 0.0887 | 0.989 | 0.281 | 0.117 | 0.107 | 0.0746 |
| Cc1c2c(nn1C)CSCc1cc(n(C)n1)CSc1cc(c3ccccc3c1)OCCCc1c(C(=O)O)n(C)c3c-2c(Cl)ccc13 [AZD5991] + Nc1ccn([C@@H]2O[C@H](CO)[C@@H](O)C2(F)F)c(=O)n1 [Gemcitabine] (first compound max 1 µM, 7x7, partner max 0.3 µM) | 0.961 | – | 0.762 | – | – | – | – | – | – | – | 0.377 | 0.999 | 0.48 | 0.317 | 0.487 | 0.758 |
| C[C@@H]1COCCN1c1cc(C2([S@](C)(=N)=O)CC2)nc(-c2ccnc3[nH]ccc23)n1 [AZD6738] + Nc1ccn([C@@H]2O[C@H](CO)[C@@H](O)C2(F)F)c(=O)n1 [Gemcitabine] (first compound max 10 µM, 7x7, partner max 0.3 µM) | 0.991 | – | 0.703 | – | – | – | – | – | – | – | 0.543 | 0.941 | 0.529 | 0.411 | 0.789 | 0.841 |
| C[C@@H](Nc1cc(F)cc(F)c1)c1cc(C(=O)N(C)C)cc2c(=O)cc(N3CCOCC3)oc12 [AZD8186] + C1CN(CCC1(C(=O)N[C@@H](CCO)C2=CC=C(C=C2)Cl)N)C3=NC=NC4=C3C=CN4 [AZD5363] (first compound max 10 µM, 7x7, partner max 10 µM) | 0.232 | – | 0.436 | – | – | – | – | – | – | – | 0.41 | 0.318 | 0.573 | 0.258 | 0.26 | 0.508 |
| C[C@@H]1COCCN1c1cc(C2([S@](C)(=N)=O)CC2)nc(-c2ccnc3[nH]ccc23)n1 [AZD6738] + C1CC(C1)(C(=O)[O-])C(=O)[O-].N.N.[Pt+2] [Carboplatin] (first compound max 10 µM, 7x7, partner max 10 µM) | 0.521 | – | 0.601 | – | – | – | – | – | – | – | 0.323 | 0.528 | 0.309 | 0.136 | 0.466 | 0.36 |
| COc1nnc2ccc(N3CCC(c4ccc(OCCN5CCN(C)C(=O)[C@H]5C)cc4)CC3)nn12 [AZD5153] + CN(CC[C@H](CSC1=CC=CC=C1)NC2=C(C=C(C=C2)S(=O)(=O)NC(=O)C3=CC=C(C=C3)N4CCC(CC4)[C@H](C5=CC=CC=C5C6=CC=C(C=C6)Cl)O)S(=O)(=O)C(F)(F)F)CCO [AZD4320] (first compound max 1 µM, 7x7, partner max 1 µM) | 0.476 | 0.611 | 0.444 | 0.58 | 0.845 | 0.454 | 0.969 | 0.922 | 0.8 | 0.807 | – | – | – | – | – | – |
| Cc1c2c(nn1C)CSCc1cc(n(C)n1)CSc1cc(c3ccccc3c1)OCCCc1c(C(=O)O)n(C)c3c-2c(Cl)ccc13 [AZD5991] + CC(=O)O[C@H]1C(=O)[C@@]2(C)[C@H]([C@H](OC(=O)c3ccccc3)[C@]3(O)C[C@H](OC(=O)[C@H](O)[C@@H](NC(=O)c4ccccc4)c4ccccc4)C(C)=C1C3(C)C)[C@]1(OC(C)=O)CO[C@@H]1C[C@@H]2O [Paclitaxel] (first compound max 1 µM, 7x7, partner max 3 µM) | 0.787 | – | 0.654 | – | – | – | – | – | – | – | 0.183 | 1 | 0.505 | 0.219 | 0.715 | 0.692 |
| Cc1c2c(nn1C)CSCc1cc(n(C)n1)CSc1cc(c3ccccc3c1)OCCCc1c(C(=O)O)n(C)c3c-2c(Cl)ccc13 [AZD5991] + CS(=O)(=O)CCNCc1ccc(-c2ccc3ncnc(Nc4ccc(OCc5cccc(F)c5)c(Cl)c4)c3c2)o1 [Lapatinib] (first compound max 1 µM, 7x7, partner max 10 µM) | 0.318 | – | 0.228 | – | – | – | – | – | – | – | 0.688 | 0.993 | 0.973 | 0.219 | 0.237 | 0.806 |
